{"source": "ChEMBL document CHEMBL1201862", "about": "“PubChem BioAssay data set” (2004)", "key": {"[1]": {"target": "T1, Histone-lysine N-methyltransferase NSD2 (Homo sapiens, UniProt O96028)", "T1 sequence (O96028 whole entry)": "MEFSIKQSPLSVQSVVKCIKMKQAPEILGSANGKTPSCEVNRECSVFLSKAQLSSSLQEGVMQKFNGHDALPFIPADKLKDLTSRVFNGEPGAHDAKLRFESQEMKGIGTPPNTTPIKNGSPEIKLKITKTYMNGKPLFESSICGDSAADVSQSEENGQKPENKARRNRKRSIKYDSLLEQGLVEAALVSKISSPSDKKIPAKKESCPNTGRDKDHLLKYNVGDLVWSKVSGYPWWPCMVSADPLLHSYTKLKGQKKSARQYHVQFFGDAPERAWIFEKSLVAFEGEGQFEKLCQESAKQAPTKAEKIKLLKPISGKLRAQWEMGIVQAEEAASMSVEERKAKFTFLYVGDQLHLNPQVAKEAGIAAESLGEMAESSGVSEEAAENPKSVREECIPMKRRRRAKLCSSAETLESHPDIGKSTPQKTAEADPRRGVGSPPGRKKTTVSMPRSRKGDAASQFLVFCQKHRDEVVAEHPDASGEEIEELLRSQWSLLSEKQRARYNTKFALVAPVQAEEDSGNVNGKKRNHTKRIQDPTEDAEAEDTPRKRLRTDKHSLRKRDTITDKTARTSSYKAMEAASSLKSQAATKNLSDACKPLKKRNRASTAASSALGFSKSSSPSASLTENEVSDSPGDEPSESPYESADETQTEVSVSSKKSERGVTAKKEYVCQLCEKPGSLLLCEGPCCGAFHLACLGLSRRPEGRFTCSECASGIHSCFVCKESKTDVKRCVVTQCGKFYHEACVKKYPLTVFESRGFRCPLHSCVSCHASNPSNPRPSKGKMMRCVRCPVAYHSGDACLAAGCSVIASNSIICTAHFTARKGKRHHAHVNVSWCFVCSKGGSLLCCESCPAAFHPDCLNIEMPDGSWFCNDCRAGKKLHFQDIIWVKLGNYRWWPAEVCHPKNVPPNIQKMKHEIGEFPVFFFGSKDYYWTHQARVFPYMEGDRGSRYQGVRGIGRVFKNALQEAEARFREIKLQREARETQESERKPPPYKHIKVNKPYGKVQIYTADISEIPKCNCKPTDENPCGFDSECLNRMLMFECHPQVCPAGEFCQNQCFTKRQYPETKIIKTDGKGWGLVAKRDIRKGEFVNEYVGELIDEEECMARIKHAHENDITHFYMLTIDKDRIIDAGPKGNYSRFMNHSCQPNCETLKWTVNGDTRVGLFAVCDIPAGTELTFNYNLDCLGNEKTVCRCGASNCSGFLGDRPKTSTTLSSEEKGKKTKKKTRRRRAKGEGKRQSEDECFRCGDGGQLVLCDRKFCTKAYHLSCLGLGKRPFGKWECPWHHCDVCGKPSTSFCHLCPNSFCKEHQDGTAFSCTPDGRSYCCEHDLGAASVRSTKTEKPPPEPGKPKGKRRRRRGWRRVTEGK", "type": "biochemical"}, "[2]": {"target": "T2, Mitochondrial peptide methionine sulfoxide reductase (Bos taurus, UniProt P54149)", "T2 sequence (P54149 whole entry)": "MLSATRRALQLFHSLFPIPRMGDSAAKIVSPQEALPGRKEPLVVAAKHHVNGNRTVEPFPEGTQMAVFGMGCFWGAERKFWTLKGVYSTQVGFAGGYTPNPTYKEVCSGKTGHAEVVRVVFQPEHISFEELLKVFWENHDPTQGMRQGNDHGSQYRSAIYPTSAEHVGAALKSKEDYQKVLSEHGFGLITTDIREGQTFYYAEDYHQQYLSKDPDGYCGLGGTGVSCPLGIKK", "test": "Absorbance-based biochemical high throughput dose response assay for activators of Methionine sulfoxide reductase A (MsrA).", "type": "functional"}, "[3]": {"test": "Luminescence Cell-Based Dose Retest to Confirm Inhibitors of Cancer Stem Cells. [Related pubchem assays (depositor defined):AID2717, AID2721]", "type": "functional", "conditions": "Homo sapiens"}, "[4]": {"target": "T3, Zinc finger protein mex-5 (Caenorhabditis elegans, UniProt Q9XUB2)", "T3 sequence (Q9XUB2 whole entry)": "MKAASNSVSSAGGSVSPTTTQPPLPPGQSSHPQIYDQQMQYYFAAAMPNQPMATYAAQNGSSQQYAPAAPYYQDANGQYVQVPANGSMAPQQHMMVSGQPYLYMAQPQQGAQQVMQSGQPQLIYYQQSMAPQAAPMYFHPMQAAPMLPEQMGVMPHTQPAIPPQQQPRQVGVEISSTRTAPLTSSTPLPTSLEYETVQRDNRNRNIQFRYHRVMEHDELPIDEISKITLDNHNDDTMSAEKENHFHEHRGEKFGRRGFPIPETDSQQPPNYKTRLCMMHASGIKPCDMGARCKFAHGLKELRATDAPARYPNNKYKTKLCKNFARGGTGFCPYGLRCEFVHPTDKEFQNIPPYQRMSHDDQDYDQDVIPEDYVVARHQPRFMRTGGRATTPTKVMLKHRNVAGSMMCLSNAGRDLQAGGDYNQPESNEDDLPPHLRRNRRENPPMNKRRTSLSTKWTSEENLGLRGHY", "test": "MEX-5/TCR-2 RNA interaction inhibitors, dose response, biochemical, C. elegans, fluorescence polarization (AID 1960)"}}, "note": "Calls of active or inactive are those of the source."}
{"smiles": "CC(C)c1ccc(S(=O)(=O)/N=C2\\C=C(NS(=O)(=O)c3ccccc3)C(=O)c3ccccc32)cc1", "values": [{"measurement": "AC50", "setting": "[1]", "result": "4 µM (active)"}]}
{"smiles": "COc1ccc(CNC(=O)c2c(C)oc3c2C(=O)c2ccccc2C3=O)cc1", "values": [{"measurement": "EC50", "setting": "[2]", "result": "> 104 µM (inactive)"}]}
{"smiles": "O=[N+]([O-])c1ccc(/C=N/n2cnc3ccccc32)s1", "values": [{"measurement": "AC50", "setting": "[3]", "result": "3.84 µM (active)"}, {"measurement": "EC50", "setting": "[4]", "result": "> 300 µM (inconclusive)"}]}
